This is an account of results in patent publication US20240270809A1, “ORAL GLP RECEPTOR AGONISTS” (priority 2020, published 2024).

Positions of bridges follow the written chain, without caps; N, C: chain ends. Non-standard residues stand in square brackets, D forms with d. Residues, ends and D or L forms follow the SMILES beside them. *: point of attachment. Malonyl(2,2-Me2,histaminyl) = CC(C)(C(=O)NCCc1cnc[nH]1)C(=O)*; Ala(1H-tetrazol-5-yl) = N[C@@H](Cc1nnn[nH]1)C(=O)O; Nle = CCCC[C@H](N)C(=O)O; Aib = CC(C)(N)C(=O)O

For one test, the target named is T1, human GLP2 receptor (Homo sapiens, UniProt O95838).
T1 construct: expressed in transfected cells; host or cells: HEK cells, BacMam virus transduction
T1 sequence (O95838 1-553): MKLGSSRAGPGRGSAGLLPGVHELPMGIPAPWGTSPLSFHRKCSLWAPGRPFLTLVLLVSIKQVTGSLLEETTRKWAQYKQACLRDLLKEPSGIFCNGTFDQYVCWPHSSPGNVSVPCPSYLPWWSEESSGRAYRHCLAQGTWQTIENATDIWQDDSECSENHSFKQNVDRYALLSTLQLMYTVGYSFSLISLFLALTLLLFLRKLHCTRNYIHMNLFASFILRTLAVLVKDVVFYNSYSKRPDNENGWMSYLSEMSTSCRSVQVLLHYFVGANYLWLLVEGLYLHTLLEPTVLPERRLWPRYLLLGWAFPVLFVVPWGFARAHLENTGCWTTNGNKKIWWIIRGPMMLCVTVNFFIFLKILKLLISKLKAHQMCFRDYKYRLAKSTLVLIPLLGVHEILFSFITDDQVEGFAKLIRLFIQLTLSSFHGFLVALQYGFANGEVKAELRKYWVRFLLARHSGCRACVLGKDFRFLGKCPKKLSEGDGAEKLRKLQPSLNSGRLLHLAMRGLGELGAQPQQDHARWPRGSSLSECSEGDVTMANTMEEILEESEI
Nature of the test: cAMP accumulation assay, functional agonism of human GLP2 receptor. It is filed as cell-based. The settings on record: HEK cells infected with human GLP2 receptor BacMam virus, HTRF cAMP; for Emax: HEK293, read-out: Human GLP-2R agonist cAMP Emax; for EC50: read-out: Human GLP-2R agonist cAMP pEC50 (converted). The method, boiled down:
(§1)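 HTRF cAMP read-out: HEK cells expressing GLP1 or GLP2 receptor via 24 h BacMam infection, frozen before use; agonist exposure 45 min, 37° C, HBSS + 0.5 mM IBMX; stopped with detection reagents in lysis buffer.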

In a further test the target is T2, human GLP1 receptor (Homo sapiens, UniProt P43220).
T2 construct: expressed in transfected cells; host or cells: HEK cells, BacMam virus transduction
T2 sequence (P43220 24-463): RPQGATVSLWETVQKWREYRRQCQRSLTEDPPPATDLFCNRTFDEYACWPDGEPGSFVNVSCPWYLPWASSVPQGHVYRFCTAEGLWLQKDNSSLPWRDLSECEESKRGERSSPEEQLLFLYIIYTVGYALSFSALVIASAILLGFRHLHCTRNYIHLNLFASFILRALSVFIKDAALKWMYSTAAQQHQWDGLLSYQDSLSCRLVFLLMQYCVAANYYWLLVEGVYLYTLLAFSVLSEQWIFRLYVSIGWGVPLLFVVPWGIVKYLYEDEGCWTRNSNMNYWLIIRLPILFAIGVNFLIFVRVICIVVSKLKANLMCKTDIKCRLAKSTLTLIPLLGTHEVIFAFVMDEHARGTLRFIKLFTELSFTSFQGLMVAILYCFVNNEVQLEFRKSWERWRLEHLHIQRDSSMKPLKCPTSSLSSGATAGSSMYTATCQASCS
Nature of the test: cAMP accumulation assay, functional agonism of human GLP1 receptor. In kind it is cell-based. The settings on record: HEK cells infected with human GLP1 receptor BacMam virus, HTRF cAMP; for Emax: HEK293, read-out: Human GLP-1R agonist cAMP Emax; for EC50: read-out: Human GLP-1R agonist cAMP pEC50 (converted). In outline: as §1
A general note: cAMP levels reflect the balance of adenylyl cyclase and phosphodiesterase activity.

In the case of `CCCC[C@@H]1NC(=O)[C@H](CCC(=O)O)NC(=O)[C@H](CC(=O)O)NC(=O)[C@@H](NC(=O)[C@H](Cc2ccccc2)NC(=O)[C@H](CO)NC(=O)CNC(=O)[C@H](Cc2nn[nH]n2)NC(=O)C(C)(C)C(=O)NCCc2c[nH]cn2)CCC(=O)NCCCC[C@@H](C(=O)N[C@H]2CCC(=O)NCCCC[C@@H](C(=O)N[C@H]3CCC(=O)NCCCC[C@@H](C(=O)N[C@@H](CC(=O)O)C(=O)N[C@@H](Cc4ccccc4)C(=O)N[C@H](C(=O)N[C@H]4CCC(=O)NCCCC[C@@H](C(=O)N[C@H]5CCCCNC(=O)CC[C@@H](C(N)=O)NC(=O)[C@H]([C@@H](C)O)NC(=O)[C@H]([C@@H](C)CC)NC(=O)[C@H](CCCCN)NC5=O)NC(=O)[C@H]([C@@H](C)CC)NC(=O)[C@H](CC(C)C)NC(=O)[C@H](Cc5c[nH]c6ccccc56)NC4=O)[C@@H](C)CC)NC(=O)[C@H](C)NC(=O)[C@H](C)NC3=O)NC(=O)[C@H](CC(=O)O)NC(=O)[C@H](CC(C)C)NC(=O)[C@H]([C@@H](C)CC)NC2=O)NC1=O` [Example 80], on human GLP2 receptor, the Emax was determined as 99.9% and the EC50 was 200 pM. At human GLP1 receptor, the Emax worked out at 64.1% and the EC50 was 3980 pM.

For the compound `CCCC[C@@H]1NC(=O)[C@H](CCC(=O)O)NC(=O)[C@H](CC(=O)O)NC(=O)[C@@H](NC(=O)[C@H](Cc2ccccc2)NC(=O)[C@H](CO)NC(=O)CNC(=O)[C@H](Cc2nn[nH]n2)NC(=O)C(C)(C)C(=O)NCCc2c[nH]cn2)CCC(=O)NCCCC[C@@H](C(=O)N[C@H]2CCC(=O)NCCCC[C@@H](C(=O)N[C@H]3CCCCNC(=O)C[C@@H](C(=O)N[C@@H](Cc4ccccc4)C(=O)N[C@H](C(=O)N[C@H]4CCC(=O)NCCCC[C@@H](C(=O)N[C@H]5CCCCNC(=O)CC[C@@H](C(N)=O)NC(=O)[C@H]([C@@H](C)O)NC(=O)[C@H]([C@@H](C)CC)NC(=O)[C@H](CCCCN)NC5=O)NC(=O)[C@H]([C@@H](C)CC)NC(=O)[C@H](CC(C)C)NC(=O)[C@H](Cc5c[nH]c6ccccc56)NC4=O)[C@@H](C)CC)NC(=O)[C@H](CCCCN)NC(=O)[C@H](C)NC(=O)[C@H](C)NC3=O)NC(=O)[C@H](CC(=O)O)NC(=O)[C@H](CC(C)C)NC(=O)[C@H]([C@@H](C)CC)NC2=O)NC1=O` [Example 81] ({Malonyl(2,2-Me2,histaminyl)}-[Ala(1H-tetrazol-5-yl)]GSFEDE[Nle]KEILDKKAAKDFIEWLIKKKITE-NH2; lactam 5-9, 10-14, 15-19, 22-26, 27-31; C-terminus assumed), at human GLP2 receptor, the Emax was determined as 91.6% and the EC50 is 631 pM. Moreover, on human GLP1 receptor, the Emax was 56.1% and the EC50 was 3160 pM.

For the compound `CCCC[C@@H]1NC(=O)[C@H](CCC(=O)O)NC(=O)[C@@H](NC(=O)[C@H](CO)NC(=O)[C@H](Cc2ccccc2)NC(=O)[C@H](CO)NC(=O)CNC(=O)[C@H](Cc2nn[nH]n2)NC(=O)C(C)(C)C(=O)NCCc2c[nH]cn2)CCCCNC(=O)C[C@@H](C(=O)N[C@H](C(=O)N[C@@H](CC(C)C)C(=O)N[C@@H](CC(=O)O)C(=O)N[C@@H](CC(C)C)C(=O)N[C@@H](CCCCN)C(=O)N[C@@H](C)C(=O)N[C@@H](C)C(=O)N[C@@H](CCCCN)C(=O)N[C@@H](CC(=O)O)C(=O)N[C@@H](Cc2ccccc2)C(=O)N[C@H](C(=O)N[C@@H](CC(N)=O)C(=O)N[C@@H](Cc2c[nH]c3ccccc23)C(=O)N[C@@H](CC(C)C)C(=O)N[C@H](C(=O)N[C@@H](CCC(N)=O)C(=O)N[C@H](C(=O)N[C@@H](CCCCN)C(=O)N[C@H](C(=O)N[C@H](C(=O)N[C@@H](Cc2ccccc2)C(N)=O)[C@@H](C)O)[C@@H](C)CC)[C@@H](C)O)[C@@H](C)CC)[C@@H](C)CC)[C@@H](C)CC)NC(=O)[C@@H](Cc2ccccc2)NC1=O` [Example 82] ({Malonyl(2,2-Me2,histaminyl)}-[Ala(1H-tetrazol-5-yl)]GSFSKE[Nle][dF]DILDLKAAKDFINWLIQTKITF-NH2; lactam 6-10 (inferred); C-terminus assumed), the figures for the Emax on human GLP2 receptor and at human GLP1 receptor were 104% and 94.5%, respectively. For the same compound, the EC50 is 79.4 pM on human GLP2 receptor and 12600 pM on human GLP1 receptor.

On to `CCCC[C@H](NC(=O)[C@H](CCC(=O)O)NC(=O)[C@H](CC(=O)O)NC(=O)[C@H](CO)NC(=O)[C@H](Cc1ccccc1)NC(=O)[C@H](CO)NC(=O)CNC(=O)[C@H](Cc1nn[nH]n1)NC(=O)C(C)(C)C(=O)NCCc1c[nH]cn1)C(=O)N[C@H](Cc1ccccc1)C(=O)N[C@H](C(=O)N[C@H](C(=O)N[C@@H](CC(C)C)C(=O)N[C@@H](CC(=O)O)C(=O)N[C@@H](CC(C)C)C(=O)N[C@@H](CCCCN)C(=O)N[C@@H](C)C(=O)N[C@@H](C)C(=O)N[C@@H](CCCCN)C(=O)N[C@@H](CC(=O)O)C(=O)N[C@@H](Cc1ccccc1)C(=O)N[C@H](C(=O)N[C@@H](CC(N)=O)C(=O)N[C@@H](Cc1c[nH]c2ccccc12)C(=O)N[C@@H](CC(C)C)C(=O)N[C@H](C(=O)N[C@@H](CCC(N)=O)C(=O)N[C@H](C(=O)N[C@H]1CCC(=O)NCCCC[C@@H](C(N)=O)NC(=O)[C@H]([C@@H](C)O)NC(=O)[C@H]([C@@H](C)CC)NC1=O)[C@@H](C)O)[C@@H](C)CC)[C@@H](C)CC)[C@@H](C)CC)[C@@H](C)O` [Example 83] ({Malonyl(2,2-Me2,histaminyl)}-[Ala(1H-tetrazol-5-yl)]GSFSDE[Nle][dF]TILDLKAAKDFINWLIQTEITK-NH2; lactam 28-31 (inferred); C-terminus assumed), for which, at human GLP2 receptor, the Emax was 103% and the EC50 was 251 pM. Further, on human GLP1 receptor, the Emax was 98.1% and the EC50 is 631 pM.

Turning to `CCCC[C@H](NC(=O)[C@H](CCC(=O)O)NC(=O)[C@@H]1CC(=O)NCCCC[C@H](NC(=O)[C@H](CC(=O)O)NC(=O)C(C)(C)NC(=O)[C@@H](N)Cc2c[nH]cn2)C(=O)N[C@@H](CO)C(=O)N[C@@H](Cc2ccccc2)C(=O)N[C@@H](CO)C(=O)N1)C(=O)N[C@H](Cc1ccccc1)C(=O)N[C@H](C(=O)N[C@H](C(=O)N[C@@H](CC(C)C)C(=O)N[C@@H](CC(=O)O)C(=O)N[C@@H](CC(C)C)C(=O)N[C@@H](CCCCN)C(=O)N[C@@H](C)C(=O)N[C@@H](C)C(=O)N[C@@H](CCCCN)C(=O)N[C@@H](CC(=O)O)C(=O)N[C@@H](Cc1ccccc1)C(=O)N[C@H](C(=O)N[C@@H](CC(N)=O)C(=O)N[C@@H](Cc1c[nH]c2ccccc12)C(=O)N[C@@H](CC(C)C)C(=O)N[C@H](C(=O)N[C@@H](CCC(N)=O)C(=O)N[C@H](C(=O)N[C@@H](CCCCN)C(=O)N[C@H](C(=O)N[C@H](C(=O)N[C@@H](CC(=O)O)C(N)=O)[C@@H](C)O)[C@@H](C)CC)[C@@H](C)O)[C@@H](C)CC)[C@@H](C)CC)[C@@H](C)CC)[C@@H](C)O` [Example 84] (H-H[Aib]DKSFSDE[Nle][dF]TILDLKAAKDFINWLIQTKITD-NH2; lactam 4-8; C-terminus assumed), at human GLP2 receptor, the Emax turned out to be 103% and the EC50 is 50.1 pM. Moreover, at human GLP1 receptor, the Emax came to 87.3% and the EC50 was 10000 pM.

`CCCC[C@@H]1NC(=O)[C@H](CCC(=O)O)NC(=O)[C@@H](NC(=O)[C@H](CO)NC(=O)[C@H](Cc2ccccc2)NC(=O)[C@H](CO)NC(=O)CNC(=O)[C@H](CC(=O)O)NC(=O)C(C)(C)NC(=O)[C@@H](N)Cc2c[nH]cn2)CCCCNC(=O)C[C@@H](C(=O)N[C@H](C(=O)N[C@@H](CC(C)C)C(=O)N[C@@H](CC(=O)O)C(=O)N[C@@H](CC(C)C)C(=O)N[C@@H](CCCCN)C(=O)N[C@@H](C)C(=O)N[C@@H](C)C(=O)N[C@@H](CCCCN)C(=O)N[C@@H](CC(=O)O)C(=O)N[C@@H](Cc2ccccc2)C(=O)N[C@H](C(=O)N[C@@H](CC(N)=O)C(=O)N[C@@H](Cc2c[nH]c3ccccc23)C(=O)N[C@@H](CC(C)C)C(=O)N[C@H](C(=O)N[C@@H](CCC(N)=O)C(=O)N[C@H](C(=O)N[C@@H](CCCCN)C(=O)N[C@H](C(=O)N[C@H](C(=O)N[C@@H](CC(=O)O)C(N)=O)[C@@H](C)O)[C@@H](C)CC)[C@@H](C)O)[C@@H](C)CC)[C@@H](C)CC)[C@@H](C)CC)NC(=O)[C@@H](Cc2ccccc2)NC1=O` [Example 85] (H-H[Aib]DGSFSKE[Nle][dF]DILDLKAAKDFINWLIQTKITD-NH2; lactam 8-12; N-terminus and C-terminus assumed): at human GLP2 receptor, the Emax is 103% and the EC50 was 31.6 pM. In addition, at human GLP1 receptor, the Emax turned out to be 95.2% and the EC50 is 12600 pM.

Usually Emax stands for the size of the effect at its maximum, as opposed to the concentration needed.
